Numbers after ± are expanded uncertainties.
Details: 101 kPa, Liquid; for viscosity: Capillary tube (Ostwald / Ubbelohde) method; for mass density: Pycnometric method

| viscosity (288.15 K) [mPa·s] | mass density (288.15 K) [kg/m3] | viscosity (293.15 K) [mPa·s] | mass density (293.15 K) [kg/m3] | viscosity (298.15 K) [mPa·s] | mass density (298.15 K) [kg/m3] | viscosity (303.15 K) [mPa·s] | mass density (303.15 K) [kg/m3] | viscosity (308.15 K) [mPa·s] | mass density (308.15 K) [kg/m3] | SMILES |
| --- | --- | --- | --- | --- | --- | --- | --- | --- | --- | --- |
| 0.441 ± 0.007 | 688.1 ± 0.3 | 0.417 ± 0.007 | 683.8 ± 0.3 | 0.396 ± 0.007 | 679.7 ± 0.3 | 0.375 ± 0.007 | 675.4 ± 0.3 | 0.356 ± 0.007 | 671.1 ± 0.3 | CCCCCCC [heptane] |
| 1.077 ± 0.011 | 783.3 ± 0.3 | 0.984 ± 0.01 | 778.6 ± 0.3 | 0.903 ± 0.01 | 773.9 ± 0.3 | 0.83 ± 0.009 | 769.2 ± 0.3 | 0.764 ± 0.009 | 764.5 ± 0.4 | C1CCCCC1 [cyclohexane] |
